What was measured:
[1] = target: Vav3 binding to Rac in p190-BCR-ABL Ba/F3 cells (Mus musculus, UniProt Q9R0C8); experiment: GST-Rac pull-down, immunoblot for pVav3; type: cell-based, murine; details: 3 μM, 30 min
Method: (§1) FIG. 14: IODVA1 targets Vav3 in vitro and in vivo. (A) Ba/F3 cells expressing empty vector Mieg3 or p190-BCR-ABL1 were treated with vehicle control or IODVA1 (IO1, 3 μM) for 30 min and incubated with GST-Rac and glutathione beads. Beads were washed and the protein complexes were separated on SDS-PAGE and immunoblotted for pVav3. Input Vav3 was used as control. (B) Binding affinity (Kd) between IODVA1 and Vav3 (green), LARG (brown), and RacGDP (blue). […] Error bars=SD; N=3. (C) Quantification of the average number of colonies made by bone marrow wild-type (black) and Vav3^−/− (lilac) p190-BCR-ABL1 leukemic cells treated with vehicle control or IODVA1 (IO1, 1 and 3 μM) (* p≤0.05; ** p≤0.01; *** p≤0.001; ns, not significant). (D) Representative histogram data of the cell cycle analysis of wild-type (black and grey bars) and Vav3^−/− (dark and light lilac) bone marrow cells expressing p190-BCR-ABL and treated with vehicle control or IODVA1 (IO1, 3 μM) for 20 h. (E) Quantification by densitometry of the pVav3 band from FIG. 14A. […]
(§2) Rac activity and signaling is regulated by GAPs, GDIs, and RacGEFs. […] The pull-down protein complex was separated on SDS-PAGE and immunoblotted for pVav3 and Vav3 and quantified (FIGS. 14A & 14E). […]

[2] = target: Vav3 binding to Rac in empty vector Ba/F3 cells (Mus musculus, UniProt Q9R0C8); experiment: GST-Rac pull-down, immunoblot for pVav3; type: cell-based, murine; details: 3 μM, 30 min
Sequence of Vav3 binding to Rac in empty vector Ba/F3 cells (Q9R0C8 whole entry): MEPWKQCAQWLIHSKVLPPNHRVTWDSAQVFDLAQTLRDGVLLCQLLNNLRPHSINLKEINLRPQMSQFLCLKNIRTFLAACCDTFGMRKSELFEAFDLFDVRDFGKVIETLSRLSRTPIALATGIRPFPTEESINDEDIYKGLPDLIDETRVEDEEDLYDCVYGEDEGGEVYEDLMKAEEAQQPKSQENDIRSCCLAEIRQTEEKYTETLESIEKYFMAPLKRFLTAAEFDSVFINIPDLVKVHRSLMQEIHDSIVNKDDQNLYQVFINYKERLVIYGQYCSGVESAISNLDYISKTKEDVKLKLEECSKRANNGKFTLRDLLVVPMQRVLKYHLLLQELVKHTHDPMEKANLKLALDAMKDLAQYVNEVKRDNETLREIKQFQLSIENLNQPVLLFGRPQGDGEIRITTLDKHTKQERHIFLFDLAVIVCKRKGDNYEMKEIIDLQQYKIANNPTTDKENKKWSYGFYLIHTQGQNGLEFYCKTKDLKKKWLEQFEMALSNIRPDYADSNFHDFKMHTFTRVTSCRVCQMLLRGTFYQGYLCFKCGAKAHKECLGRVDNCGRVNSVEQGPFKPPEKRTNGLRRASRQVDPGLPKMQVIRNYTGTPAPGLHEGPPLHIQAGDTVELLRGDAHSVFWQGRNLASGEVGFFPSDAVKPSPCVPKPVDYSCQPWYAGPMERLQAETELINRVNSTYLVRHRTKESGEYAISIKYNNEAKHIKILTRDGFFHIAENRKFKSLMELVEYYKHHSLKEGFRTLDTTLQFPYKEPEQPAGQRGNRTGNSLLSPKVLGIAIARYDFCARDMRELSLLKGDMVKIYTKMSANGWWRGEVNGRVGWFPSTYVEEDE
Method: as §1, §2

[3] = test system: wild-type murine BM leukemic cells expressing p190-BCR-ABL; experiment: Colony formation assay (CFU-proB); type: cell-based
Method: as §1, with “(D) Representative histogram data of the cell cycle analysis of wild-type (black and grey bars) and Vav3^−/− (dark and light lilac) bone marrow cells expressing p190-BCR-ABL and treated with vehicle control or IODVA1 (IO1, 3 μM) for 20 h.” left out
B-cell lineage colony-forming units (CFU-proB) were quantified post 9-day culture of leukemic BM cells or sorted for p190-BCR-ABL-expressing B-cell progenitors in M3134 methylcellulose (StemCell Technologies) supplemented with 30% FBS (for mouse B lymphoid colony forming cells; StemCell Technologies), […] L-glutamine (Invitrogen), 1% penicillin-streptomycin (Invitrogen), 100 μM β-mercaptoethanol (Fisher-Scientific), 1% BSA (Sigma-Aldrich), 20 ng/mL of recombinant mouse IL-7 (PeproTech), and 100 ng/mL of recombinant mouse SCF (PeproTech).

[4] = test system: Vav3−/− cells expressing p190-BCR-ABL; experiment: Cell cycle analysis; type: cell-based, murine; details: 3 μM, 20 h
Method: as §1
Cell cycle was analyzed by using in vitro incorporation of 5-Bromo-2-deoxyuridine using Brdu Flow kit (BD Pharmingen, Cat #552598). […] DNAse treatment was done according to the instructions and stained with anti BrdU and apoptosis was analyzed by 7-AAD staining through flow cytometry analysis.

[5] = test system: empty vector (Mieg3)-expressing Ba/F3 cells; experiment: Cell survival/viability, trypan blue exclusion; type: cell-based, murine; details: IODVA1

Sequence of Vav3 binding to Rac in p190-BCR-ABL Ba/F3 cells (Q9R0C8 whole entry): as above

How did the “decrease in intensity of pVav3 band bound to Rac” value [1] turn out when `OC1(c2ccccn2)N=C(Nc2nc3ccccc3[nH]2)N=C1c1ccccn1` (stereo not drawn) [IODVA1, (Z)-2-((1H-benzo[d]imidazol-2-yl)imino)-4,5-di(pyridin-2-yl)-2,5-dihydro-1H-imidazol-5-ol] was run?
Its value is 8 times.

And the “Vav3 or pVav3 bound to Rac” value [2]?
Its value is “no significant change”.

What about the “decrease in number of colonies (average)” value ([3]; 1 μM) of the same compound?
Its value is 3 folds.

And the “decrease in number of colonies (average)” value ([3]; 3 μM)?
Its value is 7 folds.

And the cell cycle [4]?
Its cell cycle is “not affected”.

What about the inhibition of survival [5] of the same compound?
The inhibition of survival was “not”.
